From ChEMBL document CHEMBL3112512, “Microwave induced three-component synthesis and antimycobacterial activity of benzopyrazolo[3,4-b]quinolindiones” (2014) come the findings set out here.

The structures appear in SMILES notation. ≈ marks a conversion by molar mass, not a printed value.

Holding throughout (assay type): functional
For test [1], the system named is Mycobacterium tuberculosis. As to the kind of experiment: Antimycobacterial activity against rifampicin-resistant Mycobacterium tuberculosis H37Rv ATCC 35838 by MTT assay.
The subject of test [2] is Mycobacterium tuberculosis. As to the kind of experiment: Antimycobacterial activity against streptomycin-resistant Mycobacterium tuberculosis H37Rv ATCC 35820 by MTT assay.
Test [3] deals with Mycobacterium tuberculosis. Description: Antimycobacterial activity against isoniazid and rifampicin-resistant Mycobacterium tuberculosis MTB411 clinical isolate by MTT assay.
In test [4] the test system is Mycobacterium tuberculosis. As to the kind of experiment: Antimycobacterial activity against isoniazid and rifampicin-resistant Mycobacterium tuberculosis MTB985 clinical isolate by MTT assay.
For test [5], the system named is Mycobacterium tuberculosis. As to the kind of experiment: Antimycobacterial activity against ethambutol-resistant Mycobacterium tuberculosis H37Rv ATCC 35837 by MTT assay. Background: Tetrazolium dyes change colour on reduction, which living cells bring about.
Test [6] concerns Mycobacterium tuberculosis. Description: Antimycobacterial activity against isoniazid-resistant Mycobacterium tuberculosis H37Rv ATCC 35822 by MTT assay.
In test [7] the test system is Mycobacterium tuberculosis. As to the kind of experiment: Antimycobacterial activity against isoniazid and rifampicin-resistant Mycobacterium tuberculosis MTB4000 clinical isolate by MTT assay.
Test [8] has as its system Mycobacterium tuberculosis. Description: Antimycobacterial activity against isoniazid and rifampicin-resistant Mycobacterium tuberculosis MTB2556 clinical isolate by MTT assay.
Test [9] relates to Mycobacterium tuberculosis. Description: Antimycobacterial activity against isoniazid and rifampicin-resistant Mycobacterium tuberculosis UT544 clinical isolate by MTT assay.

The term MIC denotes the lowest concentration found to suppress growth. Take `COc1ccc(C2C3=C(Nc4[nH]nc(-c5ccccc5)c42)c2ccccc2C(=O)C3=O)cc1` (stereo not given): the minimum inhibitory concentration (MIC) in [1], in [2], in [3], in [4], in test [5] and in [6] was greater than 32 µg/mL in each case. The MIC in test [7], in [8] and in [9] was greater than 32 µg/mL in each case.
As for `Cc1ccc(C2C3=C(Nc4[nH]nc(-c5ccccc5)c42)c2ccccc2C(=O)C3=O)cc1` (stereo not given), the MIC in [1], in test [2], in test [3], in test [4], in test [5] and in [6] was greater than 32 µg/mL each time. In addition, the minimum inhibitory concentration (MIC) in test [7], in [8] and in test [9] was greater than 32 µg/mL in each case.
In the case of `Cc1nn(-c2ccccc2)c2nc3c(c(-c4ccc(Cl)cc4)c12)C(=O)C(=O)c1ccccc1-3`, the MIC in [1], in test [2], in [3], in [4], in test [5] and in test [6] was greater than 32 µg/mL each time. Besides, the MIC in [7], in [8] and in test [9] was greater than 32 µg/mL throughout.
Consider `Cc1nn(-c2ccccc2)c2nc3c(c(-c4ccccc4)c12)C(=O)C(=O)c1ccccc1-3`, for which the minimum inhibitory concentration (MIC) in [1] was no more than 2 µg/mL; in test [2], no more than 2 µg/mL; in test [3], 4 µg/mL (≈ 9.63 µM); in [4] it was no more than 2 µg/mL; in test [5], no more than 2 µg/mL; in [6], no more than 2 µg/mL. In addition, the minimum inhibitory concentration (MIC) in test [7], in test [8] and in [9] was no more than 2 µg/mL in each case.
Take `O=C1C(=O)c2ccccc2C2=C1C(c1ccccc1)c1c(-c3ccc(Cl)cc3)n[nH]c1N2` (stereo not given): the minimum inhibitory concentration (MIC) in test [1], in [2], in test [3], in test [4], in test [5] and in test [6] was greater than 32 µg/mL in each case. Besides, the minimum inhibitory concentration (MIC) in test [7], in test [8] and in test [9] was greater than 32 µg/mL each time.
Take `Cc1ccc(-c2n[nH]c3c2C(c2ccccc2)C2=C(N3)c3ccccc3C(=O)C2=O)cc1` (stereo not given): the MIC in test [1] turned out to be 4 µg/mL (≈ 9.58 µM); in test [2], 16 µg/mL (≈ 38.3 µM); in test [3], 16 µg/mL (≈ 38.3 µM); in test [4] it was 16 µg/mL (≈ 38.3 µM); in test [5] it was 16 µg/mL (≈ 38.3 µM); in test [6], 16 µg/mL (≈ 38.3 µM). Further, the minimum inhibitory concentration (MIC) in test [7], in [8] and in test [9] was 16 µg/mL (≈ 38.3 µM) throughout.
In the case of `COc1ccc(-c2c3c(nc4[nH]nc(-c5ccc(Cl)cc5)c24)-c2ccccc2C(=O)C3=O)cc1`, the minimal inhibitory concentration (MIC) is 16 µg/mL (≈ 34.3 µM) in test [1]; 16 µg/mL (≈ 34.3 µM) in [2]; 16 µg/mL (≈ 34.3 µM) in test [3]; 16 µg/mL (≈ 34.3 µM) in test [4]; greater than 32 µg/mL in [5]; greater than 32 µg/mL in test [6]. The MIC was 16 µg/mL (≈ 34.3 µM) in test [7], 8 µg/mL (≈ 17.2 µM) in test [8] and 8 µg/mL (≈ 17.2 µM) in [9].
On to `COc1cc(-c2c3c(nc4c2c(C)nn4-c2ccccc2)-c2ccccc2C(=O)C3=O)cc(OC)c1OC`, for which the minimal inhibitory concentration (MIC) in test [1], in [2], in test [3], in [4], in test [5] and in test [6] was greater than 32 µg/mL throughout. Moreover, the MIC in test [7], in [8] and in test [9] was greater than 32 µg/mL in each case.
Regarding `CO[C@H]1/C=C/O[C@@]2(C)Oc3c(C)c(O)c4c(O)c(c(/C=N/N5CCN(C)CC5)c(O)c4c3C2=O)NC(=O)/C(C)=C\C=C\[C@H](C)[C@H](O)[C@@H](C)[C@@H](O)[C@@H](C)[C@H](OC(C)=O)[C@@H]1C` [RIFAMPIN], the minimum inhibitory concentration (MIC) in test [1] was greater than 0.5 µg/mL; in test [2] it was 0.125 µg/mL (≈ 0.152 µM); in test [3], greater than 0.5 µg/mL; in test [4], greater than 0.5 µg/mL; in test [5], 0.125 µg/mL (≈ 0.152 µM); in test [6], 0.125 µg/mL (≈ 0.152 µM). In addition, the MIC in [7], in test [8] and in test [9] was greater than 0.5 µg/mL throughout.
Take `NNC(=O)c1ccncc1` [ISONIAZID]: the MIC is 0.25 µg/mL (≈ 1.82 µM) in [1]; 0.25 µg/mL (≈ 1.82 µM) in [2]; greater than 0.5 µg/mL in test [3]; greater than 0.5 µg/mL in [4]; 0.25 µg/mL (≈ 1.82 µM) in test [5]; greater than 0.5 µg/mL in test [6]. Further, the MIC in test [7], in [8] and in test [9] was greater than 0.5 µg/mL in each case.
Consider `Cc1ccc(-c2c3c(nc4c2c(C)nn4-c2ccccc2)-c2ccccc2C(=O)C3=O)cc1`, for which the MIC in test [1] was 4 µg/mL (≈ 9.31 µM); in test [2] it was no more than 2 µg/mL; in [3], 4 µg/mL (≈ 9.31 µM); in test [4] it was no more than 2 µg/mL; in test [5] it was 4 µg/mL (≈ 9.31 µM); in [6], no more than 2 µg/mL. The minimal inhibitory concentration (MIC) in [7], in test [8] and in [9] was no more than 2 µg/mL each time.
As to `O=C1C(=O)c2ccccc2C2=C1C(c1ccccc1)c1c(-c3ccccc3)n[nH]c1N2` (stereo not given), the MIC in test [1], in test [2], in test [3], in test [4], in test [5] and in test [6] was greater than 32 µg/mL throughout. Further, the MIC in test [7], in test [8] and in test [9] was greater than 32 µg/mL in each case.
Consider `Cc1nn(-c2ccccc2)c2nc3c(c(-c4ccc(F)cc4)c12)C(=O)C(=O)c1ccccc1-3`, for which the MIC in test [1] was 4 µg/mL (≈ 9.23 µM); in test [2] it was no more than 2 µg/mL; in test [3], 4 µg/mL (≈ 9.23 µM); in test [4], no more than 2 µg/mL; in test [5], 4 µg/mL (≈ 9.23 µM); in [6], no more than 2 µg/mL. Moreover, the MIC in test [7], in test [8] and in test [9] was no more than 2 µg/mL in each case.
Consider `Cc1ccc(-c2n[nH]c3nc4c(c(-c5ccc([N+](=O)[O-])cc5)c23)C(=O)C(=O)c2ccccc2-4)cc1`, for which the minimal inhibitory concentration (MIC) in test [1], in test [2], in test [3], in [4], in test [5] and in test [6] was greater than 32 µg/mL each time. The MIC in test [7], in [8] and in test [9] was greater than 32 µg/mL each time.
`O=C1C(=O)c2ccccc2C2=C1C(c1ccccc1)c1c(-c3ccc([N+](=O)[O-])cc3)n[nH]c1N2` (stereo not given): the minimum inhibitory concentration (MIC) is 16 µg/mL (≈ 35.7 µM) in test [1]; 16 µg/mL (≈ 35.7 µM) in [2]; 16 µg/mL (≈ 35.7 µM) in test [3]; 8 µg/mL (≈ 17.8 µM) in test [4]; greater than 32 µg/mL in test [5]; 16 µg/mL (≈ 35.7 µM) in test [6]. Also, the MIC in test [7] was found to be 16 µg/mL (≈ 35.7 µM); in test [8], 8 µg/mL (≈ 17.8 µM); in [9] it was 8 µg/mL (≈ 17.8 µM).
